Among the data in ChEMBL document CHEMBL1139727, “A novel series of imidazo[1,2-a]pyridine derivatives as HIF-1alpha prolyl hydroxylase inhibitors” (Bioorg Med Chem Lett, 2006) are IC50 values, retold here.

The target in the experiment is Egl nine homolog 1 (Homo sapiens, UniProt Q9GZT9). The experiment can be described thus: Inhibition of human EGLN1.
Sequence of Egl nine homolog 1 (Q9GZT9 whole entry): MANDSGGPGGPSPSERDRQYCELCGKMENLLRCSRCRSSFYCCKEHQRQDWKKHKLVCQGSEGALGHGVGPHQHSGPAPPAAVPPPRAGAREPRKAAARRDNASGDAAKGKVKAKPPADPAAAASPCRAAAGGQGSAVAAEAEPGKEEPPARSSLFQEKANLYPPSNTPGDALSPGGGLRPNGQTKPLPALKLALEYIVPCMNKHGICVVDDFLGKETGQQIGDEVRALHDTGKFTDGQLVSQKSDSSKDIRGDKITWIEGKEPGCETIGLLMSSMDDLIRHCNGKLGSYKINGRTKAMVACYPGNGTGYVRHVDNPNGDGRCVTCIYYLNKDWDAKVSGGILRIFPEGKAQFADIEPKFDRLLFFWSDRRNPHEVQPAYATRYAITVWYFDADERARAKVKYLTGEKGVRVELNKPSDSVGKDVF

In the case of `Cc1cccc(-c2ccc3nc(C(=O)NCC(=O)O)cn3c2)c1`, the IC50 (in general, the concentration that gives 50% inhibition) is over 100 µM.
